The values that follow come from US4931444A, “5-lipoxygenase inhibiting 4-(4-phenyl-1-piperazinyl)phenols” (Janssen Pharmaceutica N.V., priority 1989, dated 1990).

Where a name gives a salt, the structure may show the parent alone.

In assay [1] the test system is Dextran-induced edema formation in the ears of mice. Description: Inhibition of Dextran-induced edema formation in the ears of mice. Format: in vivo, male Swiss mice. The note with it: Column B, at 10 mg/kg body weight, 1 h before dextran; for inhibition in vivo at 10 mg/kg: Mus musculus, po, read-out: inhibition of Dextran-induced blueing of the ears of mice, % inhibition; for inhibition of Dextran-induced blueing of the ears of mice, % inhibition: oral. An excerpt: Inhibition of Dextran-induced edema formation in the ears of mice.
Intravenous injection of Dextran T500® (Pharmacia) and pontamine sky-blue dye into mice results in increased vascular permeability and edema formation, characterized by an intense blueing of the ears. Determination of the amount of extravasated dye is presumed to yield a quantitative measure of the 5-lipoxygenase inhibiting activity of the test compounds (Drug. Dev. Res. 8, 213-218, 1986). Unfasted male Swiss mice weighing 24-26 g were used in the experiments which were performed between 13.00 pm and 17.00 pm at an ambient temperature of 22±1° C. The mice were treated orally with a test compound of formula (I) dissolved in a volume of […] of either polyethyleneglycol (PEG 200) or hydroxypropyl cyclodextrine at doses varying between 1.25 and 40 mg per kg bodyweight. In control experiments the mice were administered an identical amount of solvent alone. One hour after treatment there was injected intravenously an isotonic saline solution containing 60 mg/ml Dextran T500® and 13 mg/ml pontamine sky-blue dye in a volume of 0.1 ml per 10 g bodyweight. One hour and forty-five minutes later the animals were sacrificed by ether and their ears were removed. Extraction and quantification of the extravasated dye were performed as described (Drug Dev. Res. 8, 213-218, 1986). The calculated percentage of inhibition of ear blueing upon administration of a compound of formula (I) at a dose of 10 mg/kg bodyweight is shown in the second column of table 12.

A further assay has as its target T1, 5-lipoxygenase (Rattus norvegicus, UniProt P12527).
T1 construct: The supernatant, aliquoted and stored at -70° C., was used as the source of 5-lipoxygenase activity; endogenous in cells; host or cells: Rat basophilic leukemia (RBL) cells, 10,000×g supernatant of the sonicate (crude, not purified)
T1 sequence (P12527 1-673): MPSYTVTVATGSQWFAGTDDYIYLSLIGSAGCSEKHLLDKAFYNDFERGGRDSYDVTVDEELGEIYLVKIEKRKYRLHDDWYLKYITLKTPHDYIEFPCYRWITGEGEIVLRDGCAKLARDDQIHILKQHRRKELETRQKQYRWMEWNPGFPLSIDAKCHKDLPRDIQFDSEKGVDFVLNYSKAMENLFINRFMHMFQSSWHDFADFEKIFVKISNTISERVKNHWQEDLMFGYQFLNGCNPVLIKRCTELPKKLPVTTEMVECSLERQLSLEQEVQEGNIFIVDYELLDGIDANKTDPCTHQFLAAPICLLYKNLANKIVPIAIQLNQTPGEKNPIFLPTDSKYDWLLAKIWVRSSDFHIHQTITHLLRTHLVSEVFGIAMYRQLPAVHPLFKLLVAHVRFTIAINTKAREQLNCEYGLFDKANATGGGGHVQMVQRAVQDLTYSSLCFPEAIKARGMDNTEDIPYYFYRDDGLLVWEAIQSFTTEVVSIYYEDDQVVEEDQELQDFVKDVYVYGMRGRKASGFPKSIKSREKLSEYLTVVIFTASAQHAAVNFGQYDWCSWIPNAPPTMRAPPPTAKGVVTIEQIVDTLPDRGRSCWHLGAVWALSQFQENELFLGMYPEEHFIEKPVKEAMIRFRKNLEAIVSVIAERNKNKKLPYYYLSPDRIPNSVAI
Description: Arachidonate 5-lipoxygenase inhibition in Rat Basophilic Leukemia Cells Supernatant. It counts as biochemical. The arrangement: dose or concentration left out as unconfirmed. Particulars: Column A, 5-HPETE and LTB4 formation; for inhibition: read-out: 5-lipoxygenase inhibition in RBL cells supernatant, % inhibition.

For orientation: inhibition means the change of the read-out against control, counted positive when it falls. For the molecule `CCC(C)n1nc(C)n(-c2ccc(N3CCN(c4ccc(O)c(C)c4)CC3)cc2)c1=O` (stereo not shown) [Compound 7.38], the inhibition in vivo at 10 mg/kg in assay [1] worked out at 88%. In addition, at 5-lipoxygenase, the inhibition was determined as 100%.

With `CC(C(O)c1ccc(Cl)cc1Cl)n1ncn(-c2ccc(N3CCN(c4ccc(O)cc4)CC3)cc2)c1=O` (stereo not shown) [Compound 7.23], the “inhibition of Dextran-induced blueing of the ears of mice, % inhibition” value in assay [1] is 94%. In addition, the “5-lipoxygenase inhibition in RBL cells supernatant, % inhibition” value at 5-lipoxygenase is recorded as 91%.

As to `CCCCN1CCCSC1=Nc1ccc(N2CCN(c3ccc(O)cc3)CC2)cc1` [Compound 2.01], the inhibition in vivo at 10 mg/kg in assay [1] amounted to 71%. Moreover, the inhibition at 5-lipoxygenase is 90%.

As for `CC(C(=O)c1ccc(Br)cc1)n1ncn(-c2ccc(N3CCN(c4ccc(O)cc4)CC3)cc2)c1=O` (stereo not shown) [Compound 7.16], the inhibition in vivo at 10 mg/kg in assay [1] amounted to 91%. On 5-lipoxygenase, the inhibition worked out at 94%.

On to `CC(C(=O)c1ccc(F)cc1)n1ncn(-c2ccc(N3CCN(c4ccc(O)cc4)CC3)cc2)c1=O` (stereo not shown) [Compound 7.14], for which the inhibition in vivo at 10 mg/kg in assay [1] stood at 70%. Besides, the inhibition on 5-lipoxygenase worked out at 66%.

For the molecule `CCN1C(=S)N(c2ccc(N3CCN(c4ccc(O)cc4)CC3)cc2)C(=O)C1(C)C` [Compound 5.13], the inhibition in vivo at 10 mg/kg in assay [1] amounted to 15%. On 5-lipoxygenase, the inhibition came out at 71%.

Take `CC(C)N1C(=O)N(c2ccc(N3CCN(c4ccc(O)cc4)CC3)cc2)C(C)(C)C1=O` [Compound 6.09]: the inhibition on 5-lipoxygenase is 84%.

In the case of `CCCCN1C(=O)N(c2ccc(N3CCN(c4ccc(O)cc4)CC3)cc2)C(=O)C1C` (stereo not shown) [Compound 5.03], the inhibition in vivo at 10 mg/kg in assay [1] was 72%. Further, the inhibition on 5-lipoxygenase was determined as 79%.

In the case of `O=[N+]([O-])c1cc(F)ccc1N1CCN(c2ccc(O)cc2)CC1` [Compound 1.16, 4-[4-(4-fluoro-2-nitrophenyl)-1-piperazinyl]phenol monohydrochloride], the inhibition at 5-lipoxygenase was determined as 94%.

For `Cn1c(=O)n(C)c(=O)n(-c2ccc(N3CCN(c4ccc(O)cc4)CC3)cc2)c1=O` [Compound 9.05], in assay [1], the inhibition in vivo at 10 mg/kg amounted to 83%.

`CCCCN1C(=O)N(c2ccc(N3CCN(c4ccc(O)cc4)CC3)cc2)CC1(C)C` [Compound 4.13]: at 5-lipoxygenase, the inhibition was 95%.

On to `CCC(C)n1nc(C)n(-c2ccc(N3CCN(c4ccc(O)cc4)CC3)cc2)c1=O` (stereo not shown) [Compound 7.33, 2,4-dihydro-4-[4-[4-(4-hydroxyphenyl)-1-piperazinyl]phenyl]-5-methyl-2-(1-methylpropyl)-3H-1,2,4-triazol-3-one], for which the inhibition in vivo at 10 mg/kg in assay [1] worked out at 87%. For the same molecule, the inhibition on 5-lipoxygenase was 80%.

As to `Cc1nn(C(C)C(=O)c2ccc(Br)cc2)c(=O)n1-c1ccc(N2CCN(c3ccc(O)cc3)CC2)cc1` (stereo not shown) [Compound 7.57, 2-[2-(4-bromophenyl)-1-methyl-2-oxoethyl]-2,4-dihydro-4-[4-[4-(4-hydroxyphenyl)-1-piperazinyl]phenyl]-5-methyl-3H-1,2,4-triazol-3-one], in assay [1], the inhibition in vivo at 10 mg/kg came out at 82%. Moreover, at 5-lipoxygenase, the inhibition was 90%.

With `CN1C(=S)N(c2ccc(N3CCN(c4ccc(O)cc4)CC3)cc2)C(=O)C1(C)C` [Compound 5.12], the inhibition in vivo at 10 mg/kg in assay [1] was 88%. Further, the inhibition on 5-lipoxygenase is 81%.

Consider `CCCCn1c(=O)cnn(-c2ccc(N3CCN(c4ccc(O)cc4)CC3)cc2)c1=O` [Compound 10.05, 4-butyl-2-[4-[4-(4-hydroxyphenyl)-1-piperazinyl]phenyl]-1,2,4-triazine-3,5(2H,4H)-dione], for which the inhibition on 5-lipoxygenase came out at 80%.

`CCC(C(O)c1ccccc1)n1ncn(-c2ccc(N3CCN(c4ccc(O)cc4)CC3)cc2)c1=O` (stereo not shown) [Compound 7.69]: the inhibition in vivo at 10 mg/kg in assay [1] amounted to 85%.

Turning to `CCN(C1=NC(C(C)C)CS1)c1ccc(N2CCN(c3ccc(O)cc3)CC2)cc1` (stereo not shown) [Compound 3.14], the inhibition in vivo at 10 mg/kg in assay [1] was 74%.

As to `CCCn1c(=O)n(-c2ccc(N3CCN(c4ccc(O)cc4)CC3)cc2)c(=O)n(C(C)C(=O)c2ccc(Br)cc2)c1=O` (stereo not shown) [Compound 9.07], the inhibition in vivo at 10 mg/kg in assay [1] was determined as 83%.

Take `CCC(C)n1nc(C)n(-c2ccc(N3CCN(c4cc(C)c(O)c(C)c4)CC3)cc2)c1=O` (stereo not shown) [Compound 7.50, 2,4-dihydro-4-[4-[4-(4-hydroxy-3,5-dimethylphenyl)-1-piperazinyl]phenyl]-5-methyl-2-(1-methylpropyl)-3H-1,2,4-triazol-3-one]: the inhibition in vivo at 10 mg/kg in assay [1] was 88%. Also, the inhibition on 5-lipoxygenase is 52%.

`CCCn1c(=O)n(CCC)c(=O)n(-c2ccc(N3CCN(c4ccc(O)cc4)CC3)cc2)c1=O` [Compound 9.03]: the inhibition in vivo at 10 mg/kg in assay [1] came out at 94%. Further, the inhibition on 5-lipoxygenase was 58%.

For `CC12CCCN1C(=O)N(c1ccc(N3CCN(c4ccc(O)cc4)CC3)cc1)C2=O` (stereo not shown) [Compound 5.10], the inhibition in vivo at 10 mg/kg in assay [1] came to 75%. Moreover, the inhibition at 5-lipoxygenase was found to be 69%.

Turning to `CC(C(O)c1ccc(Br)cc1)n1ncn(-c2ccc(N3CCN(c4ccc(O)cc4)CC3)cc2)c1=O` (stereo not shown) [Compound 7.68], the “inhibition of Dextran-induced blueing of the ears of mice, % inhibition” value in assay [1] (10 mg/kg) came out at 81%.

For the molecule `CCC(C(=O)c1ccc(Cl)cc1)n1ncn(-c2ccc(N3CCN(c4ccc(O)cc4)CC3)cc2)c1=O` (stereo not shown) [Compound 7.41], the inhibition in vivo at 10 mg/kg in assay [1] came out at 82%.

With `CCCN1C(=O)N(c2ccc(N3CCN(c4ccc(O)cc4)CC3)cc2)C(C)(C)C1=O` [Compound 6.08], the inhibition in vivo at 10 mg/kg in assay [1] is 89%. For the same molecule, the inhibition on 5-lipoxygenase is 75%.

On to `CC(C(O)c1ccc(Br)cc1)n1ncn(-c2ccc(N3CCN(c4ccc(O)cc4)CC3)cc2)c1=O` (stereo not shown) [Compound 7.35], for which the inhibition in vivo at 10 mg/kg in assay [1] turned out to be 79%. For the same molecule, on 5-lipoxygenase, the inhibition came to 100%.

Turning to `CCC(C(=O)c1ccc(Br)cc1)n1ncn(-c2ccc(N3CCN(c4ccc(O)cc4)CC3)cc2)c1=O` (stereo not shown) [Compound 7.36], in assay [1], the inhibition in vivo at 10 mg/kg was determined as 93%. Further, the inhibition on 5-lipoxygenase turned out to be 100%.

For the molecule `Cc1cc(N2CCN(c3ccc(-n4c(C)nn(C(C)C(=O)c5ccc(Br)cc5)c4=O)cc3)CC2)cc(C)c1O` (stereo not shown) [Compound 7.51, 2-[2-(4-bromophenyl)-1-methyl-2-oxoethyl]-2,4-dihydro-4-[4-[4-(4-hydroxy-3,5-dimethylphenyl)-1-piperazinyl]phenyl]-5-methyl-3H-1,2,4-triazol-3-one], the inhibition in vivo at 10 mg/kg in assay [1] came out at 83%. For the same molecule, the inhibition at 5-lipoxygenase came out at 93%.

For the molecule `CCC(C)N1C(=O)N(c2ccc(N3CCN(c4ccc(O)cc4)CC3)cc2)C(C)(C)C1=O` (stereo not shown) [Compound 6.12], in assay [1], the inhibition in vivo at 10 mg/kg stood at 53%. Besides, the inhibition on 5-lipoxygenase was found to be 90%.

As for `O=c1n(-c2ccc(N3CCN(c4ccc(O)cc4)CC3)cc2)cnn1CC(F)(F)F` [Compound 7.11], the inhibition in vivo at 10 mg/kg in assay [1] worked out at 81%. Moreover, at 5-lipoxygenase, the inhibition is 81%.

On to `CC(C(O)c1ccc(Cl)cc1Cl)n1ncn(-c2ccc(N3CCN(c4ccc(O)cc4)CC3)cc2)c1=O` (stereo not shown) [Compound 7.22], for which the inhibition in vivo at 10 mg/kg in assay [1] stood at 94%. The inhibition at 5-lipoxygenase stood at 100%.

For the molecule `Cc1nn(C(C)C(O)c2ccc(Br)cc2)c(=O)n1-c1ccc(N2CCN(c3ccc(O)cc3)CC2)cc1` (stereo not shown) [Compound 7.70, 2-[2-(4-bromophenyl)-2-hydroxy-1-methylethyl]-2,4-dihydro-4-[4-[4-(4-hydroxyphenyl)-1-piperazinyl]phenyl]-5-methyl-3H-1,2,4-triazol-3-one], in assay [1], the inhibition in vivo at 10 mg/kg worked out at 85%.

Regarding `CCC(C)n1ncn(-c2ccc(N3CCN(c4ccc(O)cc4)CC3)c(Br)c2)c1=O` (stereo not shown) [Compound 7.21], the inhibition at 5-lipoxygenase came to 97%.

`CCCn1cnn(-c2ccc(N3CCN(c4ccc(O)cc4)CC3)cc2)c1=O` [Compound 8.05]: the inhibition at 5-lipoxygenase amounted to 90%.

For the molecule `CCN1CCN(c2ccc(N3CCN(c4ccc(O)cc4)CC3)cc2)C1=O` [Compound 4.02], the inhibition at 5-lipoxygenase was found to be 84%.

As for `CCC(C)n1ncn(-c2ccc(N3CCN(c4ccc(O)cc4)CC3)cc2)c1=O` (stereo not shown) [Compound 7.06], at 5-lipoxygenase, the inhibition was 97%.
